We go through two compounds from patent publication US9951041B2, “Crystalline C21H22Cl2N4O2 malonate” (BIOMED VALLEY DISCOVERIES, INC., priority 2015, dated 2018).

The nature of data set [1]: Pharmacokinetic evaluation in male beagles, two-way cross-over, oral gavage. The data set is classed as in vivo. An excerpt:
[…]. […] […]

The nature of data set [2]: Aqueous dissolution/solubility in fasting state simulated gastric fluid (FaSSGF) pH 1.6. The note with it: for Conc (solubility): pH 1.6 FaSSGF buffer, ambient temperature, shaken. An excerpt:
Samples of 4-(5-Chloro-2-isopropylaminopyridin-4-yl)-1H-pyrrole-2-carboxylic acid [1-(3-chlorophenyl)-2-hydroxyethyl]amide Form C and 4-(5-Chloro-2-isopropylaminopyridin-4-yl)-1H-pyrrole-2-carboxylic acid [1-(3-chlorophenyl)-2-hydroxyethyl]amide malonate Form A were each shaken at ambient temperature in fasting state simulated gastric fluid (FaSSGF) pH 1.6 for 30. Concentration of 4-(5-Chloro-2-isopropylaminopyridin-4-yl)-1H-pyrrole-2-carboxylic acid [1-(3-chlorophenyl)-2-hydroxyethyl]amide was measured at 5, 15 and 30 minutes.

Data set [3] can be described thus: Aqueous dissolution/solubility in fasting state simulated intestinal fluid (FaSSIF) pH 6.5 after 30 min in FaSSGF. Type of data set: physicochemical. The note with it: pH 6.5 FaSSIF buffer, after 30 min FaSSGF. On the procedure: After 30 minutes, the samples were removed from FaSSGF, placed in fasting state simulated intestinal fluid (FaSSIF) pH 6.5, with shaking, for an additional 5 hours.

Setting [4] is: pH 1.6, fassgf or other biorelevant, thermodynamic from solid.

Values after ≈ are worked out from the molar mass of the structure shown.

Turning to `CC(C)Nc1cc(-c2c[nH]c(C(=O)NC(CO)c3cccc(Cl)c3)c2)c(Cl)cn1` (stereo not shown) [Form C, 4-(5-Chloro-2-isopropylaminopyridin-4-yl)-1H-pyrrole-2-carboxylic acid [1-(3-chlorophenyl)-2-hydroxyethyl]amide Form C], in data set [1] (male beagles, single dose 5 mg/kg by oral gavage, plasma 0-24 hours), the “coefficient of variation (CV) of average area under the curve (AUC)” value worked out at 39%. The “Conc (solubility)” value in data set [2] (15 min) was 101.35 µg/mL; in data set [2] (30 min), 136.97 µg/mL; in data set [3] (30 min) it was 169.89 µg/mL; in data set [3] (120 min), 332.68 µg/mL; in data set [3] (270 min), 128.38 µg/mL; in data set [3] (300 min) it was 154.70 µg/mL.
As to `CC(C)Nc1cc(-c2c[nH]c(C(=O)N[C@H](CO)c3cccc(Cl)c3)c2)c(Cl)cn1` [Malonate Form A, 4-(5-Chloro-2-isopropylaminopyridin-4-yl)-1H-pyrrole-2-carboxylic acid [1-(3-chlorophenyl)-2-hydroxyethyl]amide malonate Form A], in data set [1] (male, beagle, dog, in vivo, po, 5 mg/kg), the “coefficient of variation (CV) of average area under the curve (AUC)” value is given as 50%. Further, in data set [2] (setting [4]), the concentration in solution (solubility at 5 min) was 381 µg/mL (≈ 878 µM), the concentration in solution (solubility at 15 min) was 385 µg/mL (≈ 889 µM) and the concentration in solution (solubility at 30 min) came to 369 µg/mL (≈ 851 µM). The solubility at 10 min in data set [3] (fasting state simulated intestinal fluid (FaSSIF), thermodynamic from solid, 10 min, read-out: Conc (solubility)) is 63.3 µg/mL (≈ 146 µM). Further, in data set [3] (fasting state simulated intestinal fluid (FaSSIF), thermodynamic from solid, 30 min, read-out: Conc (solubility)), the solubility at 30 min is 110 µg/mL (≈ 254 µM). The solubility at 60 min in data set [3] (fasting state simulated intestinal fluid (FaSSIF), thermodynamic from solid, 60 min, read-out: Conc (solubility)) is 114 µg/mL (≈ 263 µM). Further, in data set [3] (fasting state simulated intestinal fluid (FaSSIF), thermodynamic from solid, 90 min, read-out: Conc (solubility)), the solubility at 90 min is 115 µg/mL (≈ 266 µM). Further, in data set [3] (fasting state simulated intestinal fluid (FaSSIF), thermodynamic from solid, 120 min, read-out: Conc (solubility)), the solubility at 120 min was 110 µg/mL (≈ 254 µM). Besides, the solubility at 180 min in data set [3] (fasting state simulated intestinal fluid (FaSSIF), thermodynamic from solid, 180 min, read-out: Conc (solubility)) is 110 µg/mL (≈ 255 µM). In addition, the solubility at 270 min in data set [3] (fasting state simulated intestinal fluid (FaSSIF), thermodynamic from solid, 270 min, read-out: Conc (solubility)) is 116 µg/mL (≈ 267 µM). In data set [3] (fasting state simulated intestinal fluid (FaSSIF), thermodynamic from solid, 300 min, read-out: Conc (solubility)), the solubility at 300 min is 115 µg/mL (≈ 266 µM).

The solubility is the dissolved amount per volume that the medium holds.
